From patent publication US20030054411A1, “GPR motifs and uses thereof” (priority 2001, published 2003)
Where no end group is shown, it is not given here.

Legend:
[1] = biological target: T1, Giα1 binding to GST-AGS3-GPR (Homo sapiens, UniProt P63096); assay: Protein interaction assay: Giα1 binding to AGS3-GPR with GPR peptide; settings: 10 μM GDP; Giα1 75 nM, AGS3-GPR 300 nM; read-out: IC50 for blocking the binding of Giα1 to GST-AGS3-GPR
T1 construct: made in house; host or cells: Sf9 insect cells (Giα1); bacteria (His-AGS3-GPR)
Procedure: (§1) A and B, the carboxyl region of AGS3 (Pro^463-Ser^650) containing all four GPR repeats was generated as a His-tagged (A) or GST fusion (B) protein for protein interaction assays as described under Examples. All interactions were done in the presence of 10 μM GDP, and the input lanes represent one-tenth of the G-protein used in each interaction assay. A, Giα1 (75 nM) was incubated with 300 nM His-tagged AGS3-GPR in the absence and presence of increasing amounts of the GPR peptide, after which bound Giα was isolated on a nickel affinity matrix, and samples were processed for immunoblotting with Giα antisera. […] C and D, GTPγ^35S binding to G-proteins (100 nM) was measured in the absence and presence of peptides as described in the Examples. Data are expressed as the percent of specific binding (˜5 pmol) observed in the absence of peptide and represent the means±S.E. derived from three experiments. […]
(§2) Protein Interaction Assays—The GPR domain of AGS3 (Pro^463-Ser^650) containing the four GPR motifs was generated as a glutathione S-transferase fusion protein by polymerase chain reaction using the full-length cDNA of AGS3 as a template. […] The interaction of GST-AGS3-GPR and HIS-tagged AGS3-GPR with G-proteins was assessed by protein interaction experiments using purified G-protein as described previously (33). […]

[2] = biological target: T2, Giα2 binding to GST-AGS3-GPR (Homo sapiens, UniProt P04899); assay: Protein interaction assay: Giα2 binding to AGS3-GPR with GPR peptides; settings: 10 μM GDP; read-out: IC50 for blocking the binding of Giα2 to GST-AGS3-GPR
T2 construct: made in house; host or cells: Sf9 insect cells (Giα2)
Procedure: as §1, §2

Giα1 = biological target: T3, Giα1 (Homo sapiens, UniProt P63096); assay: GTPγS binding assay, Giα1; format: biochemical
T3 construct: made in house; host or cells: Sf9 insect cells
Procedure: as §1, with “antisera. The blot in the upper panel of A was stripped and reprobed with AGS3 antisera to provide internal controls for protein loading. B, Giα2 (75 nM) was incubated with 300 nM AGS3-GPR or GST in the presence and absence of 100 μM GPR consensus peptide, GPR peptide Q15A, or GPR peptide R23F.” for “antisera.”
GTPγS Binding Assays—GTPγS binding assays were generally conducted as described (39). […] Radioactivity bound to the filters was determined by liquid scintillation counting. […]

Giα2 = biological target: T4, Giα2 (Homo sapiens, UniProt P04899); assay: GTPγS binding assay, Giα2; format: biochemical; settings: G-protein 100 nM, 30 min, 24° C.; read-out: IC50 for inhibition of GTPγS binding to Giα2
T4 construct: made in house; host or cells: Sf9 insect cells
Procedure: A and B, the carboxyl region of AGS3 (Pro^463-Ser^650) containing all four GPR repeats was generated as a His-tagged (A) or GST fusion (B) protein for protein interaction assays as described under Examples. All interactions were done in the presence of 10 μM GDP, and the input lanes represent one-tenth of the G-protein used in each interaction assay. A, Giα1 (75 nM) was incubated with 300 nM His-tagged AGS3-GPR in the absence and presence of increasing amounts of the GPR peptide, after which bound Giα was isolated on a nickel affinity matrix, and samples were processed for immunoblotting with Giα antisera. The blot in the upper panel of A was stripped and reprobed with AGS3 antisera to provide internal controls for protein loading. B, Giα2 (75 nM) was incubated with 300 nM AGS3-GPR or GST in the presence and absence of 100 μM GPR consensus peptide, GPR peptide Q15A, or GPR peptide R23F. The immunoblots presented in A and B are representative of three experiments. C and D, GTPγ^35S binding to G-proteins (100 nM) was measured in the absence and presence of peptides as described in the Examples. Data are expressed as the percent of specific binding (˜5 pmol) observed in the absence of peptide and represent the means±S.E. derived from three experiments. The concentration of peptides in D is 10 μM.
GTPγS Binding Assays—GTPγS binding assays were generally conducted as described (39). G-proteins (100 nM) were preincubated for 20 min at 24° C. in the presence and absence of GPR peptides. Binding assays (duplicate determinations) were initiated by addition of 0.5 μM GTPγS (4.0×10^4 dpm/pmol), and incubations (total volume=50 μl) were continued for 30 min at 24° C. Both preincubations and GTPγS binding assays were conducted in binding buffer containing 2 mM MgCl2. Reactions were terminated by rapid filtration through nitrocellulose filters with 4×4-ml washes of stop buffer (50 mM Tris-HCl, 5 mM MgCl2, 1 mM EDTA, pH 7.4, at 4° C.). Radioactivity bound to the filters was determined by liquid scintillation counting. Nonspecific binding was defined by 100 μM […].

Gtα = Gtα (Homo sapiens, UniProt P11488); assay: Competition with Gβγ subunits for binding to Gtα
Gtα, sequence (P11488 whole entry): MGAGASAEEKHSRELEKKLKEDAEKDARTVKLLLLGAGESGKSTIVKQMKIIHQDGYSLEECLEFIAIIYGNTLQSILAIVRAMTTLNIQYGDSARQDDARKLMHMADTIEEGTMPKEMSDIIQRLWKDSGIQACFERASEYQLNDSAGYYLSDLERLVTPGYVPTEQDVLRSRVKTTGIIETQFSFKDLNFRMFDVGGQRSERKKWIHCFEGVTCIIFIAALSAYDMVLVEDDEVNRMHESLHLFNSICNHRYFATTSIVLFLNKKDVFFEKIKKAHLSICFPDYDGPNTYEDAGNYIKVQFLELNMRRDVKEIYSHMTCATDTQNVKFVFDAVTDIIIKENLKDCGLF

T3 sequence (P63096 whole entry): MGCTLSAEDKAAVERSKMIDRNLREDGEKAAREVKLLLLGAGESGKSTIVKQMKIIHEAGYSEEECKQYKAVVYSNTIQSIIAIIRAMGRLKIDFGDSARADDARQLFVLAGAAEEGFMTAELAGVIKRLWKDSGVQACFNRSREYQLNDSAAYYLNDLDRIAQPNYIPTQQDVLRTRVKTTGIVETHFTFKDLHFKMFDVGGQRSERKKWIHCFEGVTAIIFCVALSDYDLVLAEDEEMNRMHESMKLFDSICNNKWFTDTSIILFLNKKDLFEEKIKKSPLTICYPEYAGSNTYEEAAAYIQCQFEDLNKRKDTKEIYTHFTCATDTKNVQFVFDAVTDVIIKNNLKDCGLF
T1 sequence (P63096 2-354 limits assumed): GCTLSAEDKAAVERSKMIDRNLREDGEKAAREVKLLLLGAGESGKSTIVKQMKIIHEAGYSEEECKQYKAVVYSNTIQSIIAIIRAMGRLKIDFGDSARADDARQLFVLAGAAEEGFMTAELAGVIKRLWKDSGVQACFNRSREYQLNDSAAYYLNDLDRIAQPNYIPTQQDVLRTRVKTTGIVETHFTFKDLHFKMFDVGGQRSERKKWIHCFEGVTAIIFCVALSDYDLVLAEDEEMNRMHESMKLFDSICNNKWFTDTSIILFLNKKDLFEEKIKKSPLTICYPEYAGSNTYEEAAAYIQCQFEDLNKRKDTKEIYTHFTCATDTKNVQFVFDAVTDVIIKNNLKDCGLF
T2 sequence (P04899 2-355 limits assumed): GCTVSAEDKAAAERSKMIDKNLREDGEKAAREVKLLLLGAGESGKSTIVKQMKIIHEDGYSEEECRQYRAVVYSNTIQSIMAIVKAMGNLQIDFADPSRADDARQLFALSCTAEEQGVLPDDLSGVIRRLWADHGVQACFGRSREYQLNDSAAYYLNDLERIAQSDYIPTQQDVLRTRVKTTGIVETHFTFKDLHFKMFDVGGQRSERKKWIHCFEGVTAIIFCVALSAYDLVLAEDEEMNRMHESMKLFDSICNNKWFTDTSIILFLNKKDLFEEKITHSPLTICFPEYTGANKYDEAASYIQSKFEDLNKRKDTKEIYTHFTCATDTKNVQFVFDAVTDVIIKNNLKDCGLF
T4 sequence (P04899 whole entry): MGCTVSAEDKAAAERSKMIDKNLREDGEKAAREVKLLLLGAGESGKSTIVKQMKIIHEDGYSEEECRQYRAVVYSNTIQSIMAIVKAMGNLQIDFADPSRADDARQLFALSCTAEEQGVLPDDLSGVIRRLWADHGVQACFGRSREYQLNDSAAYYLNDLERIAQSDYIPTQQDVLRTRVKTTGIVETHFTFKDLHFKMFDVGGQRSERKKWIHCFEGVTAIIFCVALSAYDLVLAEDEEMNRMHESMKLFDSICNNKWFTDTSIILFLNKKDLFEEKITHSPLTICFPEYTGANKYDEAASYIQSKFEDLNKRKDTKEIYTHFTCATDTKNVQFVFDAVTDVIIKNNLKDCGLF

Molecule: TMGEEDFFDLLAKSQSKRMDDQRVDLAG-NH2 [GPR consensus peptide]
- IC50 [1]: ~200 nM
- IC50 [2]: ~200 nM
- IC50 (Giα1; G-protein 100 nM, 30 min, 24° C., read-out: IC50 for inhibition of GTPγS binding to Giα1): ~200 nM
- IC50 (Giα2): ~200 nM

B1: AGS3-GPR: GPR domain of AGS3 (Pro463-Ser650) containing the four GPR motifs, GST or His-tagged (protein)
chain: PREGSHSPLDSADVRVQVPRTGIPRAPSSDEECFFDLLSKFQSSRMDDQRCPLEEGQAGAAEATAAPTLEERAAQPSVTASPQTEEFFDLIASSQSRRLDDQRASVGSLPGLRITLNNVGHLRGDGDPQEPGDEFFNMLIKYQSSRIDDQRCPPPDVLPRGPTMPDEDFFSLIQRVQAKRMDEQRVDL
modifications: left off: a dimerising Fc or GST
notes: GPR domain of AGS3 (Pro463-Ser650) containing the four GPR motifs, GST or His-tagged
- GTPγS binding to Giα1 (AGS3-GPR protein) (Giα1): inhibited
- competition with Gβγ subunits for binding to Gtα (Gtα): effectively competed
